What was measured:
Test in all cases: AlphaScreen Assay
Ephrin type-B receptor 4 = target: T1, Ephrin type-B receptor 4 (Homo sapiens, UniProt P54760)
T1 sequence (P54760 whole entry): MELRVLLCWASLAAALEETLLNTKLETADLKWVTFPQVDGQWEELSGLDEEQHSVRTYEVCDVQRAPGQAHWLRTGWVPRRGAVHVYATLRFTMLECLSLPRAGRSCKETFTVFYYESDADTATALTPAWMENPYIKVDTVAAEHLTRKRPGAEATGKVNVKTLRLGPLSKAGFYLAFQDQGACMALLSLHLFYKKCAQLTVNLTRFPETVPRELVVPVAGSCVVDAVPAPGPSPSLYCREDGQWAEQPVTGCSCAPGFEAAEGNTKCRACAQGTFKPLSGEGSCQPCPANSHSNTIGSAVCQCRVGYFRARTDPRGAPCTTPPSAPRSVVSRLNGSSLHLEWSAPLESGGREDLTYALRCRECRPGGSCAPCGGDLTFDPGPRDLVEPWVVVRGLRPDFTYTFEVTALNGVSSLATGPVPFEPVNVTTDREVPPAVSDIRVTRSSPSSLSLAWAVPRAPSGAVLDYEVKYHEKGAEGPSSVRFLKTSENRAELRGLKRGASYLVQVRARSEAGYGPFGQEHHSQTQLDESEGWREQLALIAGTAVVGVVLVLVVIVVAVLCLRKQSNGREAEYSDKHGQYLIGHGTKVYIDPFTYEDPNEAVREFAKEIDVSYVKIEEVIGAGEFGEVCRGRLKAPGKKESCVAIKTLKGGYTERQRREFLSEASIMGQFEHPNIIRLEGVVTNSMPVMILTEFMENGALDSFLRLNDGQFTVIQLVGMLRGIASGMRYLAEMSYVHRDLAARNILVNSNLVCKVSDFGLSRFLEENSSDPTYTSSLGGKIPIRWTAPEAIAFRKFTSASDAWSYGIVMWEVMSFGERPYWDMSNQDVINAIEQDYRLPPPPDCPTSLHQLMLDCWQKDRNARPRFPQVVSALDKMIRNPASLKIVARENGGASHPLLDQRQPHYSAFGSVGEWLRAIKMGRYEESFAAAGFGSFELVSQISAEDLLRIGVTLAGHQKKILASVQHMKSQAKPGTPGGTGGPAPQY

[1] = target: Vascular endothelial growth factor receptor 2 (Homo sapiens, UniProt P35968)
Ephrin type-A receptor 2 = Ephrin type-A receptor 2 (Homo sapiens, UniProt P29317)
[2] = target: Receptor tyrosine-protein kinase erbB-2 (Homo sapiens, UniProt P04626)
Receptor tyrosine-protein kinase erbB-2, sequence (P04626 whole entry): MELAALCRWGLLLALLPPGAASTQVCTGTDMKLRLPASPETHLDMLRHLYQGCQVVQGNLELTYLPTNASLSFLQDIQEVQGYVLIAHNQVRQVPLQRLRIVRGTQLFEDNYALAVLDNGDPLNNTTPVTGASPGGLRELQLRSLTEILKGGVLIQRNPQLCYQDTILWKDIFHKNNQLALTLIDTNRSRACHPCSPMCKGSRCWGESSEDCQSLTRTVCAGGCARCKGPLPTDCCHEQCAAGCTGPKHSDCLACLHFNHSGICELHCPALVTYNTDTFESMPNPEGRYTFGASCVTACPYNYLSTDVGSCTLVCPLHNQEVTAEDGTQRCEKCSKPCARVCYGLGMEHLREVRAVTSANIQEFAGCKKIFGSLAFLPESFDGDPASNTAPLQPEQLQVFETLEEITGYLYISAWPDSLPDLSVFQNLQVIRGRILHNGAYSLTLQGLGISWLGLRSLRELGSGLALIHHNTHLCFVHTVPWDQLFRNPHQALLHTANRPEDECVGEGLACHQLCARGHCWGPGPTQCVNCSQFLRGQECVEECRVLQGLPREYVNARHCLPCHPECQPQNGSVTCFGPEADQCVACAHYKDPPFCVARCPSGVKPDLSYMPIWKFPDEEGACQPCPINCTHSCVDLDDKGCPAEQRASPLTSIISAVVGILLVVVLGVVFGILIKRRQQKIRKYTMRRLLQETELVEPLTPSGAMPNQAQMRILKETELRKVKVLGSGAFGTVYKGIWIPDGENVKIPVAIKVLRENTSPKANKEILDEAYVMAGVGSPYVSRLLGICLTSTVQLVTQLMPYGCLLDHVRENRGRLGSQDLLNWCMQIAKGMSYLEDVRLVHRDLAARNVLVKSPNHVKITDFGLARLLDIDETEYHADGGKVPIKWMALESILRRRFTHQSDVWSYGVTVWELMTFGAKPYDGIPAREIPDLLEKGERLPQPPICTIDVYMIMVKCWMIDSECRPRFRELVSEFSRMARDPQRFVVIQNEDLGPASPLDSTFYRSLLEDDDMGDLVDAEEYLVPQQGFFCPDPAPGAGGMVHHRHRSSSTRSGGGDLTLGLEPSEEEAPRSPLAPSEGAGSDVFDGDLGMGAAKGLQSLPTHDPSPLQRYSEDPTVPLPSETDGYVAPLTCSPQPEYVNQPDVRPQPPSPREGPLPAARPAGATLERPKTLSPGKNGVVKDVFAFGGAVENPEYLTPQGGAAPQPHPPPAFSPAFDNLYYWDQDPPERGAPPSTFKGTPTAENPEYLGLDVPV

Vascular endothelial growth factor receptor 2, sequence (P35968 whole entry): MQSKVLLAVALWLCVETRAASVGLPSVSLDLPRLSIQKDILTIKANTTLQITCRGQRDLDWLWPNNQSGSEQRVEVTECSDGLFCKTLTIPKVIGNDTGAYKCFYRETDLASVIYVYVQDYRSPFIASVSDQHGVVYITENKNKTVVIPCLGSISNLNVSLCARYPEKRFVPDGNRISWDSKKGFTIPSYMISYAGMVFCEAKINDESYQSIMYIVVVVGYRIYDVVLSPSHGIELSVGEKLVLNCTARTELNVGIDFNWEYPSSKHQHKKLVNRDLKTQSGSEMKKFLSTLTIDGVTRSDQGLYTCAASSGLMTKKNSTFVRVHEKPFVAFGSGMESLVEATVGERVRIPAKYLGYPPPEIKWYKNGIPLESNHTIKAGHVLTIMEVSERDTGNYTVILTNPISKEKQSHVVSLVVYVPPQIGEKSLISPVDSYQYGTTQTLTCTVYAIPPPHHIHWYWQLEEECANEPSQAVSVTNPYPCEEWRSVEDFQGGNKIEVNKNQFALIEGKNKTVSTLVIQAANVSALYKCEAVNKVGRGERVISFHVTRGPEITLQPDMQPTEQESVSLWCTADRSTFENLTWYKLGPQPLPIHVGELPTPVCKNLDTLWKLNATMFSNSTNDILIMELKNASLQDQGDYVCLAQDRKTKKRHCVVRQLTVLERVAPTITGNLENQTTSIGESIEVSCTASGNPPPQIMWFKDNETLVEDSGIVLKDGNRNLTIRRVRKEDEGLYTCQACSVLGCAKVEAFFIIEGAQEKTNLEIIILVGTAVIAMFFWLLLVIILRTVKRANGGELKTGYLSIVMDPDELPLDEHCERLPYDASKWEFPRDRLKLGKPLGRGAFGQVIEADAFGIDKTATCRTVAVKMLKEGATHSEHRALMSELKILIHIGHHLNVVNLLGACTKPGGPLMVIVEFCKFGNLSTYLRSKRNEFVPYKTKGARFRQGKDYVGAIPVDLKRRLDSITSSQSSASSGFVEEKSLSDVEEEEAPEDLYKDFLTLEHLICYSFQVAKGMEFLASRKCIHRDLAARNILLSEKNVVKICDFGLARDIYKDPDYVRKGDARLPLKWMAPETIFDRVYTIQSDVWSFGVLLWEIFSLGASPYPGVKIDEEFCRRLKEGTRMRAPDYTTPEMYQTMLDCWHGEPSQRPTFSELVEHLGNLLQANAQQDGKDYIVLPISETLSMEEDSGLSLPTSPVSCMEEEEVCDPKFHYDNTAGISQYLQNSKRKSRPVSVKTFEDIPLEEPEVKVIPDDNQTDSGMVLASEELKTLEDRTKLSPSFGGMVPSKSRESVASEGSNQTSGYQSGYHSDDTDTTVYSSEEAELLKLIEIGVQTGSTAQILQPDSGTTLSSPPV
Ephrin type-A receptor 2, sequence (P29317 whole entry): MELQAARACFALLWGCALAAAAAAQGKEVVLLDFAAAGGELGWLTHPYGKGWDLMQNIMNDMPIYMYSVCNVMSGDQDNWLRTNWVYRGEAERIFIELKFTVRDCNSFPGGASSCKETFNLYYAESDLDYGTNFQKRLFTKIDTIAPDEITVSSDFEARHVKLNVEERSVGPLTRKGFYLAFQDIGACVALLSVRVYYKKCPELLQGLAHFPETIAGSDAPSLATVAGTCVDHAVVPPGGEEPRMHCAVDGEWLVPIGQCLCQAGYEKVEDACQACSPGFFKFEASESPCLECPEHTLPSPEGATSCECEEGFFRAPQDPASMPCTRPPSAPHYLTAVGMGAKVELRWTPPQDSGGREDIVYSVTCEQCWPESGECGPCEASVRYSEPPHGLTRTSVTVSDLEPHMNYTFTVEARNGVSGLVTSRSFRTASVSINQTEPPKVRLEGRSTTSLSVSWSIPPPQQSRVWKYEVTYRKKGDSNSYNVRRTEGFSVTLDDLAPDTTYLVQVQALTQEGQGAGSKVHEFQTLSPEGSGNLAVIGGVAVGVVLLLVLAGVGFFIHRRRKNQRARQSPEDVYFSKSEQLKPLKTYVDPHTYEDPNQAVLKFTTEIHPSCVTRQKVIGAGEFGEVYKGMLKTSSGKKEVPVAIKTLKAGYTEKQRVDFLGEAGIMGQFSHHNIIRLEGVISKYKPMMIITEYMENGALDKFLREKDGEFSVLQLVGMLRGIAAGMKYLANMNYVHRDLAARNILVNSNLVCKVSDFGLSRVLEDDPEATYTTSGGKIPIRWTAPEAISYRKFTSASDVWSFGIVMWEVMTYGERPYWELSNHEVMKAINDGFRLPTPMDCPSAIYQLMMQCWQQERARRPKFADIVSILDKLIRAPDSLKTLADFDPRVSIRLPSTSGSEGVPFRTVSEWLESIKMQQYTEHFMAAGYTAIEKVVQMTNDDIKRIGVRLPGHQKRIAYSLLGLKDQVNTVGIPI

Row | IC50 (Ephrin type-B receptor 4) | IC50 [1] | IC50 (Ephrin type-A receptor 2) | IC50 [2] | SMILES
1 | < 50 nM | […] | – | – | COc1cc2c(Nc3ccc(Br)c(Cl)c3F)ncnc2cc1OC[C@@H]1C[C@@H]2CN(C(C)C)C[C@@H]2C1 [US9796704, Entry 2]
2 | < 50 nM | – | – | – | COc1cc2c(Nc3ccc(Br)c(Cl)c3F)ncnc2cc1OC[C@@H]1C[C@@H]2CN(C(C)=O)C[C@@H]2C1 [US9796704, Entry 3]
3 | < 50 nM | – | – | – | COc1cc2c(Nc3ccc(Br)c(Cl)c3F)ncnc2cc1OC[C@H]1C[C@H]2CNC[C@H]2C1 [US9796704, Entry 4]
4 | < 50 nM | in the range around 10500 nM | – | – | CCOC(=O)N1C[C@H]2CC(COc3cc4ncnc(Nc5ccc(Br)c(Cl)c5F)c4cc3OC)C[C@H]2C1 (some centres not stated) [US9796704, Entry 5]
5 | < 50 nM | < 50 nM | – | – | COc1cc2c(Nc3cc(Cl)c(Cl)cc3F)ncnc2cc1OC[C@H]1CN2CCOCC2CO1 (some centres not stated) [US9796704, Entry 19]
6 | < 50 nM | < 50 nM | – | – | COc1cc2c(Nc3ccc(F)c(Cl)c3F)ncnc2cc1OC[C@H]1CN2CCOCC2CO1 (some centres not stated) [US9796704, Entry 21]
7 | in the range around 10500 nM | – | – | – | COc1cc2c(Nc3ccc(F)c(Cl)c3F)ncnc2cc1OC[C@@H]1CN2CCOCC2CO1 (some centres not stated) [US9796704, Entry 24]
8 | in the range around 525 nM | – | < 50 nM | – | COc1cc2c(Nc3cc(Cl)c(Br)cc3F)ncnc2cc1OC[C@@H]1CN2CCOCC2CO1 (some centres not stated) [US9796704, Entry 28]
9 | – | in the range around 525 nM | in the range around 525 nM | in the range around 10500 nM | COc1cc2c(Nc3cc(Cl)c(Cl)cc3F)ncnc2cc1OC[C@@H]1CN2CCC[C@H]2CO1 [US9796704, Entry 40]
10 | < 50 nM | – | – | – | COc1cc2c(Nc3ccc(Cl)c(Cl)c3)ncnc2cc1OC1C[C@@H]2CN(C)C[C@@H]2C1 (some centres not stated) [US9796704, Entry 59]
11 | in the range around 525 nM | – | in the range around 525 nM | – | COc1cc2c(Nc3c(F)cccc3F)ncnc2cc1O[C@@H]1CO[C@@H]2[C@H]1OC[C@H]2F [US9796704, Entry 87]
12 | in the range around 525 nM | – | – | – | COc1cc2c(Nc3ccc(F)c(C(F)(F)F)c3)ncnc2cc1O[C@@H]1CO[C@@H]2[C@H]1OC[C@H]2F [US9796704, Entry 89]
13 | in the range around 525 nM | – | in the range around 525 nM | – | COc1cc2c(Nc3ccc(F)cc3F)ncnc2cc1O[C@@H]1CO[C@@H]2[C@H]1OC[C@H]2F [US9796704, Entry 90]
14 | – | – | in the range around 525 nM | in the range around 525 nM | COc1cc2c(Nc3ccc(Cl)c(Cl)c3F)ncnc2cc1O[C@@H]1CO[C@@H]2[C@H]1OC[C@H]2F [US9796704, Entry 97]
15 | in the range around 525 nM | – | in the range around 525 nM | – | COc1cc2c(Nc3ccc(Cl)cc3F)ncnc2cc1O[C@@H]1CO[C@@H]2[C@H]1OC[C@H]2F [US9796704, Entry 109]
16 | – | in the range around 525 nM | in the range around 525 nM | in the range around 525 nM | COc1cc2c(Nc3ccc(Cl)cc3Cl)ncnc2cc1O[C@@H]1CO[C@@H]2[C@H]1OC[C@H]2F [US9796704, Entry 117]
17 | in the range around 525 nM | – | in the range around 525 nM | – | COc1cc2c(Nc3c(F)cc(F)cc3Br)ncnc2cc1O[C@@H]1CO[C@@H]2[C@H]1OC[C@H]2F [US9796704, Entry 120]
18 | in the range around 525 nM | – | in the range around 525 nM | – | COc1cc2c(Nc3cc(C(F)(F)F)ccc3Cl)ncnc2cc1O[C@@H]1CO[C@@H]2[C@H]1OC[C@H]2F [US9796704, Entry 122]
19 | in the range around 525 nM | – | in the range around 525 nM | – | COc1ccc(OC)c(Nc2ncnc3cc(O[C@@H]4CO[C@@H]5[C@H]4OC[C@H]5F)c(OC)cc23)c1 [US9796704, Entry 134]
20 | – | – | in the range around 525 nM | in the range around 525 nM | COc1cc2c(Nc3ccc(Cl)c(Cl)c3)ncnc2cc1OCC1CN(C(=O)OC(C)(C)C)CCO1 (configuration not stated) [US9796704, Entry 148]

Row | IC50 (Ephrin type-B receptor 4) | IC50 [1] | IC50 (Ephrin type-A receptor 2) | IC50 [2] | SMILES
21 | in the range around 525 nM | – | in the range around 525 nM | – | COc1cc2c(Nc3ccc(Cl)c(Cl)c3)ncnc2cc1OCc1noc(C(C)(C)C)n1 [US9796704, Entry 157]
22 | in the range around 525 nM | – | in the range around 525 nM | – | COc1cc2c(Nc3ccc(Cl)c(Cl)c3)ncnc2cc1OCc1noc(-c2cccc(C(F)(F)F)c2)n1 [US9796704, Entry 166]
23 | – | in the range around 525 nM | in the range around 525 nM | in the range around 525 nM | COc1cc2c(Nc3ccc(Cl)c(Cl)c3)ncnc2cc1OCc1ccncc1 [US9796704, Entry 172]
24 | in the range around 525 nM | in the range around 525 nM | – | – | COc1cc2c(Nc3ccc(Cl)c(Cl)c3)ncnc2cc1OCc1cccnc1 [US9796704, Entry 179]
25 | – | in the range around 525 nM | in the range around 525 nM | in the range around 10500 nM | COc1cc2c(Nc3ccc(Cl)c(Cl)c3)ncnc2cc1OCc1c(F)cccc1F [US9796704, Entry 233]
26 | – | in the range around 10500 nM | in the range around 10500 nM | in the range around 10500 nM | CCCN1CCCOC(COc2cc3ncnc(Nc4ccc(Cl)c(Cl)c4)c3cc2OC)C1 (configuration not stated) [US9796704, Entry 258]
27 | – | in the range around 10500 nM | in the range around 10500 nM | in the range around 10500 nM | COc1cc2c(Nc3ccc(Cl)c(Cl)c3)ncnc2cc1OCC1CN(CC2CC2)CCCO1 (configuration not stated) [US9796704, Entry 259]
28 | – | in the range around 525 nM | – | in the range around 10500 nM | CCN1CCCC1c1nc(COc2cc3ncnc(Nc4ccc(Cl)c(Cl)c4)c3cc2OC)no1 (configuration not stated) [US9796704, Entry 264]
29 | – | in the range around 10500 nM | – | in the range around 10500 nM | COc1cc2c(Nc3ccc(Cl)c(Cl)c3)ncnc2cc1OCc1nc([C@@H]2CCCN2C)no1 [US9796704, Entry 265]
30 | – | in the range around 10500 nM | – | in the range around 10500 nM | COc1cc2c(Nc3ccc(Cl)c(Cl)c3)ncnc2cc1OCc1csc([C@@H]2CCCN2C)n1 [US9796704, Entry 266]
31 | – | in the range around 10500 nM | – | in the range around 525 nM | CCN1CCN(c2nc(COc3cc4ncnc(Nc5ccc(Cl)c(Cl)c5)c4cc3OC)cs2)CC1 [US9796704, Entry 267]
32 | – | in the range around 10500 nM | – | in the range around 525 nM | COc1cc2c(Nc3ccc(Cl)c(Cl)c3)ncnc2cc1OCC1CN(C)CCN1C (configuration not stated) [US9796704, Entry 268]
33 | – | in the range around 525 nM | in the range around 10500 nM | in the range around 10500 nM | COc1cc2c(Nc3ccc(Cl)c(Cl)c3)ncnc2cc1OCC1CN(C2CCCC2)CCO1 (configuration not stated) [US9796704, Entry 269]
34 | – | in the range around 525 nM | – | in the range around 525 nM | COc1cc2c(Nc3ccc(Cl)c(Cl)c3)ncnc2cc1OCC1CN(C(C)C)CCO1 (configuration not stated) [US9796704, Entry 270]
35 | – | in the range around 10500 nM | – | in the range around 525 nM | COc1cc2c(Nc3ccc(Cl)c(Cl)c3)ncnc2cc1OCC1CN(CCCc2ccccc2)CCO1 (configuration not stated) [US9796704, Entry 271]
36 | – | in the range around 10500 nM | – | in the range around 525 nM | COCCN1CCOC(COc2cc3ncnc(Nc4ccc(Cl)c(Cl)c4)c3cc2OC)C1 (configuration not stated) [US9796704, Entry 272]
37 | – | in the range around 10500 nM | – | in the range around 10500 nM | CCOC(=O)C(C)N1CCOC(COc2cc3ncnc(Nc4ccc(Cl)c(Cl)c4)c3cc2OC)C1 (configuration not stated) [US9796704, Entry 273]
38 | – | in the range around 10500 nM | – | in the range around 10500 nM | COc1cc2c(Nc3ccc(Cl)c(Cl)c3)ncnc2cc1OCC1CN(CCOCCO)CCO1 (configuration not stated) [US9796704, Entry 275]
39 | – | in the range around 10500 nM | – | in the range around 525 nM | COc1cc2c(Nc3ccc(Cl)c(Cl)c3)ncnc2cc1OCC1CN(CCCCCC#N)CCO1 (configuration not stated) [US9796704, Entry 277]

Row | SMILES | IC50 (Ephrin type-B receptor 4) | IC50 [1] | IC50 (Ephrin type-A receptor 2) | IC50 [2]
40 | COc1cc2c(Nc3ccc(Cl)c(Cl)c3)ncnc2cc1OC[C@@H]1CN2CCC[C@@H]2CO1 [US9796704, Entry 33] | – | – | in the range around 525 nM | in the range around 525 nM

Reference: BindingDB's records for patent US9796704 (SYMPHONY EVOLUTION, INC., 2017)
